Measured values: patent EP0638566B1, “5-Aminoflavone derivatives, their preparation and their use as antibacterial, anti-estrogenic and/or antitumor agent” (KYOWA HAKKO KOGYO CO., LTD., priority 1993, dated 1995)
In brackets after ≈: the same amount, converted by molar mass. Structures can show the parent of a compound that is named as a salt. Where two headings read alike, the source gives them in different places.

What was measured:
[1] = tested on: Human mammary cancer MCF-7 cell; test: Human mammary cancer MCF-7 cell growth inhibition test (neutral red); assay type: cell-based
Description: Human mammary cancer MCF-7 cell growth inhibition test
Each 0.1 ml of MCF-7 cells which had been prepared to 5 x 10^4/ml using a medium (referred to as Medium B hereinafter) prepared by adding 10% bovine fetal serum, 10^-8M estradiol (manufactured by Sigma), 100 units/ml penicillin and 100 µg/ml streptomycin to RPMI1640 medium was distributed in each well of 96 well-microtiter plate. […] Supernatant was removed, each 0.1 ml of Medium B containing 0.02% neutral red was added to the residue, the mixture was cultured at 37 °C for 1 hour in a CO2 gas incubator and the cells were stained by neutral red dye. Supernatant was removed and the residue was washed once with a physiological saline. Then, the dye was extracted with 0.001N hydrochloric acid/30% ethanol and the absorbance at 550 nm was determined with a microplatereader.

[2] = tested on: estrogen-dependent human mammary cancer MCF-7; test: Antitumor effects against MCF-7 tumor transplanted in nude mice; assay type: in vivo, female BALB/c-nu/nu mice; details: Mus musculus, MCF7, 5 days per week for two weeks, read-out: T/C; for response vs control in vivo at 50 mg/kg: dose 50 mg/kg oral
From the text: Antitumor effects against estrogen-dependent human mammary cancer MCF-7
The tumor fragment (2mm x 2mm x 2mm) of human hormone dependent mammary cancer MCF-7 was transplanted subcutaneously in the flank of female BALB/c-nu/nu mice (Nihon Crea), 7 to 9 weeks age. […] 3 to 4 Weeks after transplantation, mice of the tumor volume of 25 to 200 mm^3 were selected, and the test compounds were orally administered repeatedly to the groups (5 animals per group) for 5 days per a week, for total two weeks. In addition, estradiol propionate was administered again on the date of initial administration of the test compounds. Length and width of the tumor were determined every day, and the tumor volumes were calculated by means of ellipsoid approximation according to the following equation: […] [formula] The tumor volume at initial administration (Vo) and on the day of judgement (V) was calculated, and the tumor growth rate (V/Vo) was calculated. T/C value was obtained as the ratio of V/Vo value of treated group relative to that of control group.

Bacillus subtilis #10107 = test: Antibacterial activity, agar dilution method; assay type: cell-based
Description: Antibacterial activity of compound (I) against Bacillus subtilis #10107 [Minimum Inhibition Concentration(MIC; µg/ml)] is shown in Table 6. Minimum Inhibition Concentration was determined by agar dilution method at pH 7.0.

[3] = tested on: estrogen-dependent human mammary cancer Br-10; test: Antitumor effects against Br-10 tumor transplanted in nude mice; assay type: in vivo, female BALB/c-nu/nu mice; details: 5 days per week for two to four weeks
From the text: Antitumor effects against estrogen-dependent human mammary cancer Br-10
The tumor fragment (2mm x 2mm x 2mm) of human hormone dependent mammary cancer Br-10 was transplanted subcutaneously in the flank of female BALB/c-nu/nu mice (Nihon Crea), 7 to 9 weeks age. […] 3 to 4 Weeks after transplantation, mice the tumor volume of which increased to 30 to 150 mm^3 were selected, and the test compounds were orally administered repeatedly to the groups (5 animals per group) for 5 days per a week, for total two to four weeks. Estradiol propionate was additionally administered on the date of initial administration of the test compounds and 14 days after the administration. Length and breadth of the tumor were determined every day, and the tumor volumes were calculated by means of ellipsoid approximation according to the above equation. The tumor volume at initial administration (Vo) and on the day of judgement (V) was calculated, and the tumor growth rate (V/Vo) was calculated. T/C value was obtained as the ratio of V/Vo value of treated group relative to that of control group.

[4] = tested on: uterus weight of immature mice; test: Effect against the increase in uterus weight of immature mice; assay type: in vivo, female BALB/c mice; details: for Weight of uterus: dose 5 mg/kg, oral, three days, uteri isolated after four days
Description: The effect against the increase in uterus weight of immature mice
Immature female BALB/c mice, 4 weeks age, were divided into two groups and 50 µg of estradiol was subcutaneously administered to the animals of one group in the chest. The test compounds were repeatedly administered orally to each group (8 animals per group) for three days since the date of estradiol administration. After four days, the uteri were isolated and the weight thereof was measured.
In Table 2, "estradiol (-)" represents an estradiol-untreated group and "estradiol (+)" represents an estradiol-treated group.

[5] = MCF7, MCF-7 cells, medium with 10^-8M estradiol, 72 hours, neutral red, absorbance at 550 nm, read-out: IC50
[6] = Minimum Inhibition Concentration, agar dilution method at pH 7.0, read-out: MIC

CCc1c(F)c(N)c2c(=O)cc(-c3ccc(N)c(F)c3)oc2c1F [Compound 2, 5-Amino-2-(4-amino-3-fluorophenyl)-7-ethyl-6,8-difluoro-4H-1-benzopyran-4-one]
IC50 [1, 5]: 130 nM

Nc1ccc(-c2cc(=O)c3c(N)c(F)c(Cl)c(F)c3o2)cc1F [Compound 5, 5-Amino-2-(4-amino-3-fluorophenyl)-7-chloro-6,8-difluoro-4H-1-benzopyran-4-one]
IC50 [1, 5]: 210 nM

Nc1ccc(-c2cc(=O)c3c(N)c(F)c(Br)c(F)c3o2)cc1F [Compound 6, 5-Amino-2-(4-amino-3-fluorophenyl)-7-bromo-6,8-difluoro-4H-1-benzopyran-4-one]
IC50 [1, 5]: 160 nM
response vs control in vivo at 50 mg/kg ([2]; judgement day 21): 54%

COc1c(F)c(N)c2c(=O)cc(-c3ccc(N)c(F)c3)oc2c1F [Compound 8, 5-Amino-2-(4-amino-3-fluorophenyl)-6,8-difluoro-7-methoxy-4H-1-benzopyran-4-one]
IC50 ([1]; MCF7, 72 h): 100 nM

CN(C)CCOc1c(F)c(N)c2c(=O)cc(-c3ccc(N)c(F)c3)oc2c1F [Compound 9, 5-Amino-2-(4-amino-3-fluorophenyl)-7-(2-dimethylaminoethoxy)-6,8-difluoro-4H-1-benzopyran-4-one]
IC50 ([1]; MCF7, 72 h): 1400 nM
response vs control in vivo at 50 mg/kg ([2]; judgement day 15): 42%
MIC (Bacillus subtilis #10107; pH 7): 52.1 µg/mL (≈ 132 µM)

CSc1c(F)c(N)c2c(=O)cc(-c3ccc(N)c(F)c3)oc2c1F [Compound 10, 5-Amino-2-(4-amino-3-fluorophenyl)-6,8-difluoro-7-methylthio-4H-1-benzopyran-4-one]
IC50 ([1]; MCF7, 72 h): 190 nM

C[S+]([O-])c1c(F)c(N)c2c(=O)cc(-c3ccc(N)c(F)c3)oc2c1F (centres unmarked) [Compound 11, 5-Amino-2-(4-amino-3-fluorophenyl)-6,8-difluoro-7-methylsulfinyl-4H-1-benzopyran-4-one]
IC50 [1, 5]: 2500 nM

CCOC(=O)c1c(F)c(N)c2c(=O)cc(-c3ccc(N)c(F)c3)oc2c1F [Compound 13, 5-Amino-2-(4-amino-3-fluorophenyl)-7-ethoxycarbonyl-6,8-difluoro-4H-1-benzopyran-4-one]
IC50 [1, 5]: 1400 nM

Nc1ccc(-c2cc(=O)c3c(N)c(F)c(N)c(F)c3o2)cc1F [Compound 16, 5,7-Diamino-2-(4-amino-3-fluorophenyl)-6,8-difluoro-4H-1-benzopyran-4-one]
IC50 ([1]; MCF7, 72 h): 7.7 nM
response vs control in vivo at 12.5 mg/kg ([2]; dose 12.5 mg/kg oral, judgement day 22): 18%
T/C ([3]; dose 12.5 mg/kg oral, judgement day 18): 0.24

CN(C)c1c(F)c(N)c2c(=O)cc(-c3ccc(N)c(F)c3)oc2c1F [Compound 17, 5-Amino-2-(4-amino-3-fluorophenyl)-7-dimethylamino-6,8-difluoro-4H-1-benzopyran-4-one]
IC50 [1, 5]: 39 nM
T/C ([3]; dose 25 mg/kg oral, judgement day 18): 0.22

CN(C)CCCNc1c(F)c(N)c2c(=O)cc(-c3ccc(N)c(F)c3)oc2c1F [Compound 18, 5-Amino-2-(4-amino-3-fluorophenyl)-7-[3-(dimethylamino)propylamino]-6,8-difluoro-4H-1-benzopyran-4-one]
MIC (Bacillus subtilis #10107; [6]): 52.1 µg/mL (≈ 128 µM)

CC(=O)c1c(F)c(N)c2c(=O)cc(-c3ccc(N)c(F)c3)oc2c1F [Compound 22, 7-Acetyl-5-amino-2-(4-amino-3-fluorophenyl)-6,8-difluoro-4H-1-benzopyran-4-one]
MIC (Bacillus subtilis #10107; [6]): 13 µg/mL (≈ 37.3 µM)

Cc1c(F)c(N)c2c(=O)cc(-c3ccc(N)c(Cl)c3)oc2c1F [Compound 24, 5-Amino-2-(4-amino-3-chlorophenyl)-6,8-difluoro-7-methyl-4H-1-benzopyran-4-one]
IC50 [1, 5]: 92 nM

CCc1cc(-c2cc(=O)c3c(N)c(F)c(C)c(F)c3o2)ccc1N [Compound 26, 5-Amino-2-(4-amino-3-ethylphenyl)-6,8-difluoro-7-methyl-4H-1-benzopyran-4-one]
IC50 [1, 5]: 65 nM

Nc1ccc(-c2cc(=O)c3c(N)c(F)c(F)c(F)c3o2)cc1F [Compound 34, 5-Amino-2-(4-amino-3-fluorophenyl)-6,7,8-trifluoro-4H-1-benzopyran-4-one]
IC50 [1, 5]: 220 nM

Cc1c(F)c(NCCCN(C)C)c2c(=O)cc(-c3ccc(N)c(F)c3)oc2c1F [Compound 37, 2-(4-Amino-3-fluorophenyl)-5-[3-(dimethylamino)propylamino]-6,8-difluoro-7-methyl-4H-1-benzopyran-4-one]
MIC (Bacillus subtilis #10107; [6]): 13 µg/mL (≈ 32.1 µM)

CCN(CC)CCCNc1c(F)c(C)c(F)c2oc(-c3ccc(N)c(F)c3)cc(=O)c12 [Compound 38, 2-(4-Amino-3-fluorophenyl)-5-[3-(diethylamino)propylamino]-6,8-difluoro-7-methyl-4H-1-benzopyran-4-one]
MIC (Bacillus subtilis #10107; [6]): 13 µg/mL (≈ 30 µM)

Nc1ccc(-c2cc(=O)c3c(N)c(F)c(CO)c(F)c3o2)cc1F [Compound 39, 5-Amino-2-(4-amino-3-fluorophenyl)-6,8-difluoro-7-hydroxymethyl-4H-1-benzopyran-4-one]
IC50 ([1]; MCF7, 72 h): 62 nM
response vs control in vivo at 50 mg/kg ([2]; judgement day 14): 1.6%

NCc1c(F)c(N)c2c(=O)cc(-c3ccc(N)c(F)c3)oc2c1F [Compound 41, 5-Amino-2-(4-amino-3-fluorophenyl)-7-aminomethyl-6,8-difluoro-4H-1-benzopyran-4-one]
IC50 ([1]; MCF7, 72 h): 26 nM
response vs control in vivo at 50 mg/kg ([2]; judgement day 18): 1.1%
MIC (Bacillus subtilis #10107; pH 7): 3.26 µg/mL (≈ 9.72 µM)

CN(C)Cc1c(F)c(N)c2c(=O)cc(-c3ccc(N)c(F)c3)oc2c1F [Compound 42, Hydrochloride of 5-amino-2-(4-amino-3-fluorophenyl)-7-dimethylaminomethyl-6,8-difluoro-4H-1-benzopyran-4-one]
IC50 ([1]; MCF7, 72 h): 72 nM

COCc1c(F)c(N)c2c(=O)cc(-c3ccc(N)c(F)c3)oc2c1F [Compound 43, 5-Amino-2-(4-amino-3-fluorophenyl)-6,8-difluoro-7-methoxymethyl-4H-1-benzopyran-4-one]
IC50 [1, 5]: 46 nM

CC(=O)OCc1c(F)c(N)c2c(=O)cc(-c3ccc(N)c(F)c3)oc2c1F [Compound 44, 7-Acetoxymethyl-5-amino-2-(4-amino-3-fluorophenyl)-6,8-difluoro-4H-1-benzopyran-4-one]
IC50 ([1]; MCF7, 72 h): 26 nM
response vs control in vivo at 25 mg/kg ([2]; dose 25 mg/kg oral, judgement day 14): 6.1%

CC/C(=C(\c1ccccc1)c1ccc(OCCN(C)C)cc1)c1ccccc1 [Tamoxifen]
Weight of uterus ([4]; estradiol (+) (50 µg estradiol s.c.)): 47 mg
Weight of uterus ([4]; estradiol (-) (estradiol-untreated group)): 49 mg
anti-estrogenic activity (increase in the uterus weight observed in an estradiol-treated group) ([4]; result in words, estradiol-treated group, oral administration): weak anti-estrogenic activity
weight of the uterus in an estradiol-untreated group ([4]; result in words, estradiol-untreated group): significantly increases the weight of the uterus
response vs control in vivo at 5 mg/kg ([2]; dose 5 mg/kg oral, judgement day 22): 25%
T/C ([3]; dose 5 mg/kg oral, judgement day 25): 0.58
